In the kinase profiling compilation of Christmann-Franck et al. (2016):

Assays:
Experiment in all cases: KINOMEscan competition binding
MAP4K2 (human) = MAP4K2 (human) (UniProt Q12851); conditions: compound 10.0 µM
RIOK1 (human) = RIOK1 (human) (UniProt Q9BRS2); conditions: compound 10.0 µM
CIT (human) = CIT (human) (UniProt O14578); conditions: compound 10.0 µM
PIP5K1A (human) = PIP5K1A (human) (UniProt Q99755); conditions: compound 10.0 µM
AURKC (human) = AURKC (human) (UniProt Q9UQB9); conditions: compound 10.0 µM
GSK3A (human) = GSK3A (human) (UniProt P49840); conditions: compound 10.0 µM
[1] = tested on: FLT3 (human), P36888 [N841I]; conditions: compound 10.0 µM
ACVR2A (human) = ACVR2A (human) (UniProt P27037); conditions: compound 10.0 µM
AAK1 (human) = AAK1 (human) (UniProt Q2M2I8); conditions: compound 10.0 µM
PIP4K2B (human) = PIP4K2B (human) (UniProt P78356); conditions: compound 10.0 µM
[2] = tested on: KIT (human), P10721 [D816V]; conditions: compound 10.0 µM
ACVR2B (human) = ACVR2B (human) (UniProt Q13705); conditions: compound 10.0 µM
AURKB (human) = AURKB (human) (UniProt Q96GD4); conditions: for kinase still bound, per cent of control: compound 10.0 µM
CDK7 (human) = CDK7 (human) (UniProt P50613); conditions: compound 10.0 µM
PHKG2 (human) = PHKG2 (human) (UniProt P15735); conditions: compound 10.0 µM
CSNK2A1 (human) = CSNK2A1 (human) (UniProt P68400); conditions: compound 10.0 µM
PLK4 (human) = PLK4 (human) (UniProt O00444); conditions: compound 10.0 µM
MAPK15 (human) = MAPK15 (human) (UniProt Q8TD08); conditions: compound 10.0 µM
CSNK2A2 (human) = CSNK2A2 (human) (UniProt P19784); conditions: compound 10.0 µM
[3] = tested on: EIF2AK4 KD2 (human), Q9P2K8 [S808G]; conditions: compound 10.0 µM
STK17A (human) = STK17A (human) (UniProt Q9UEE5); conditions: compound 10.0 µM
MYLK (human) = MYLK (human) (UniProt Q15746); conditions: compound 10.0 µM
BMP2K (human) = BMP2K (human) (UniProt Q9NSY1); conditions: compound 10.0 µM
CSNK1D (human) = CSNK1D (human) (UniProt P48730); conditions: compound 10.0 µM
PIM3 (human) = PIM3 (human) (UniProt Q86V86); conditions: compound 10.0 µM
CDK16 (human) = CDK16 (human) (UniProt Q00536); conditions: compound 10.0 µM
TAOK3 (human) = TAOK3 (human) (UniProt Q9H2K8); conditions: compound 10.0 µM
STK17B (human) = STK17B (human) (UniProt O94768); conditions: compound 10.0 µM
PIM1 (human) = PIM1 (human) (UniProt P11309); conditions: compound 10.0 µM
BRSK2 (human) = BRSK2 (human) (UniProt Q8IWQ3); conditions: compound 10.0 µM
RPS6KA2 KD2 (human) = RPS6KA2 KD2 (human) (UniProt Q15349); conditions: compound 10.0 µM
MYLK3 (human) = MYLK3 (human) (UniProt Q32MK0); conditions: compound 10.0 µM
DCLK3 (human) = DCLK3 (human) (UniProt Q9C098); conditions: compound 10.0 µM
MKNK2 (human) = MKNK2 (human) (UniProt Q9HBH9); conditions: compound 10.0 µM
MAP3K7 (human) = MAP3K7 (human) (UniProt O43318); conditions: compound 10.0 µM
NEK2 (human) = NEK2 (human) (UniProt P51955); conditions: compound 10.0 µM
MINK1 (human) = MINK1 (human) (UniProt Q8N4C8); conditions: compound 10.0 µM
PIK3CG (human) = PIK3CG (human) (UniProt P48736); conditions: compound 10.0 µM
CSNK1G1 (human) = CSNK1G1 (human) (UniProt Q9HCP0); conditions: compound 10.0 µM
RPS6KA5 KD2 (human) = RPS6KA5 KD2 (human) (UniProt O75582); conditions: compound 10.0 µM

Chain of PIM1 (human) (P11309 whole entry, looked up): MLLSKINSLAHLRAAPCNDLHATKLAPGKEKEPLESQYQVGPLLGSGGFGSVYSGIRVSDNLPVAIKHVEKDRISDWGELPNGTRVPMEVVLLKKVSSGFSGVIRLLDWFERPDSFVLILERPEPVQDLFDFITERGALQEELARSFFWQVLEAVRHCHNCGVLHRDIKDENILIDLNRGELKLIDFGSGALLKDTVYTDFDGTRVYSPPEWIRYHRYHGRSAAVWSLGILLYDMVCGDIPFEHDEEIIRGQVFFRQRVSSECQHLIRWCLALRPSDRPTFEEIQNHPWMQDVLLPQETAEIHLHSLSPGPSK
Chain of PIP4K2B (human) (P78356 whole entry, looked up): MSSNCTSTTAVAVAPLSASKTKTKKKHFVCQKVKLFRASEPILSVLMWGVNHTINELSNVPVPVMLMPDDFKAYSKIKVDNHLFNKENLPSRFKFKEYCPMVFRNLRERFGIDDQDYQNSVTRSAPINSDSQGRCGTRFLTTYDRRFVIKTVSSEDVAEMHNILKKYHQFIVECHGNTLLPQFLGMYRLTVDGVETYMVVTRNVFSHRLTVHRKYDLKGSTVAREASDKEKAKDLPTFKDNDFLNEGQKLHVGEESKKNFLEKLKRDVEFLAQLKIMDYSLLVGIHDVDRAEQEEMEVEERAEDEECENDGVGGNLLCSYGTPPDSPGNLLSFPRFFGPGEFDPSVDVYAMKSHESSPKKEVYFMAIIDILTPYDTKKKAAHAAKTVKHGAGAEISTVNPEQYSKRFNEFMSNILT
Chain of CDK16 (human) (Q00536 whole entry, looked up): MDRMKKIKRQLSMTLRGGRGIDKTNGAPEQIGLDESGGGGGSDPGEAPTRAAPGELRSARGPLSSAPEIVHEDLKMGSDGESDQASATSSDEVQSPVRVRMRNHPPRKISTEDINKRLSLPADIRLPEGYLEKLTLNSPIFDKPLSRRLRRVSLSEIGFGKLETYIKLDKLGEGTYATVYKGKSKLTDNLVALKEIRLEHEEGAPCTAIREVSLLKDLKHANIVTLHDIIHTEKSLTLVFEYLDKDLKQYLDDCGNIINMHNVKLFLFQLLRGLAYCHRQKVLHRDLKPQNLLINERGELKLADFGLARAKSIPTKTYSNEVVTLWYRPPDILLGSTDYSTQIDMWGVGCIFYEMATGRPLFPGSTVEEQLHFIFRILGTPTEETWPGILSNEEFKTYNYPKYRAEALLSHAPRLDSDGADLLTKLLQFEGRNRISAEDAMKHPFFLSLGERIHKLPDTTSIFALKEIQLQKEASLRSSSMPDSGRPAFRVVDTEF
Chain of DCLK3 (human) (Q9C098 whole entry, looked up): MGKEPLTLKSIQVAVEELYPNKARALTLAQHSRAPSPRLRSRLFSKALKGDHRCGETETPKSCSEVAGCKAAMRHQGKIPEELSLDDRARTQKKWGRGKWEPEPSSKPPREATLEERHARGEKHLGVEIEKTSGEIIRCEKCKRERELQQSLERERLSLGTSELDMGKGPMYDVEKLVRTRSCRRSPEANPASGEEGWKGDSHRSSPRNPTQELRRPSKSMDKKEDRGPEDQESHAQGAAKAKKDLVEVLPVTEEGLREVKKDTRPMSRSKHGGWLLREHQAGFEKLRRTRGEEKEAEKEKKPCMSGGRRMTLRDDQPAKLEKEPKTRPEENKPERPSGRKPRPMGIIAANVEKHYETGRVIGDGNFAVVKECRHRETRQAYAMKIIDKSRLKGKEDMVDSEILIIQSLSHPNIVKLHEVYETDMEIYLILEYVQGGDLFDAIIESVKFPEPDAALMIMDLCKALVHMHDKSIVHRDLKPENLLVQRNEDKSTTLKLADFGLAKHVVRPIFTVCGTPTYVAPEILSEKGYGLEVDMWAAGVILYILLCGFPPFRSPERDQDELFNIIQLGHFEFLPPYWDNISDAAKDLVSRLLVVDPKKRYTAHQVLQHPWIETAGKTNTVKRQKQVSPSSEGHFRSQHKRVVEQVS
Chain of MAP4K2 (human) (Q12851 whole entry, looked up): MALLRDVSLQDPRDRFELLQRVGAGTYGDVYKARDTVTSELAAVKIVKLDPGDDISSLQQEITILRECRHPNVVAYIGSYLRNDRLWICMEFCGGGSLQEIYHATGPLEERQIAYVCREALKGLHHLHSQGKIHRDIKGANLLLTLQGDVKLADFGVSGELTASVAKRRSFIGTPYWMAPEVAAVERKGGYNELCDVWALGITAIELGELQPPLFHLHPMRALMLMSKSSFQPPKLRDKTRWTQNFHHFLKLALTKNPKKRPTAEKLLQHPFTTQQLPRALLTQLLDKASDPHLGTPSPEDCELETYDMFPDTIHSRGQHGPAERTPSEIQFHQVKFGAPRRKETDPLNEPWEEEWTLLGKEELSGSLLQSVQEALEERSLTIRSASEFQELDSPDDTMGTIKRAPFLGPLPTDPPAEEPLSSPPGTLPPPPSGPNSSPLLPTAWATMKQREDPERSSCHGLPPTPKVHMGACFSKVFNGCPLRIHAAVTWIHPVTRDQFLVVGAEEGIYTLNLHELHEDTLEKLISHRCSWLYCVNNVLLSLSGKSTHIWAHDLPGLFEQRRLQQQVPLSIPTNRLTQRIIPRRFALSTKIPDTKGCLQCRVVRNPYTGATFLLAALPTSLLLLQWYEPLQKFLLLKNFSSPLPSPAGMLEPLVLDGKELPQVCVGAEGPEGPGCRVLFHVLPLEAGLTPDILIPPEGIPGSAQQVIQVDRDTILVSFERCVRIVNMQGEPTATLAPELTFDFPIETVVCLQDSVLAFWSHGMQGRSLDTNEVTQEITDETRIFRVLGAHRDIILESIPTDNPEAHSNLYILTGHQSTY
Chain of CSNK2A1 (human) (P68400 whole entry, looked up): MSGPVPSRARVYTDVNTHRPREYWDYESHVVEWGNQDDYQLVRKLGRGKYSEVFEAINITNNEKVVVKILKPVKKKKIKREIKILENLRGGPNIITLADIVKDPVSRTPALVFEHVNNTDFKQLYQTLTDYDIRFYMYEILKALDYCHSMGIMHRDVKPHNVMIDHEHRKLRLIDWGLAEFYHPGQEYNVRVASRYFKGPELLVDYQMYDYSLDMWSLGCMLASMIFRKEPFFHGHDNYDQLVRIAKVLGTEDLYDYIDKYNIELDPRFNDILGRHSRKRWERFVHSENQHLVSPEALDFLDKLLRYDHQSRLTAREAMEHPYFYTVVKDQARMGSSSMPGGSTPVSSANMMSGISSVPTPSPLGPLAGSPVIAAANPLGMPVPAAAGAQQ
Chain of BRSK2 (human) (Q8IWQ3 whole entry, looked up): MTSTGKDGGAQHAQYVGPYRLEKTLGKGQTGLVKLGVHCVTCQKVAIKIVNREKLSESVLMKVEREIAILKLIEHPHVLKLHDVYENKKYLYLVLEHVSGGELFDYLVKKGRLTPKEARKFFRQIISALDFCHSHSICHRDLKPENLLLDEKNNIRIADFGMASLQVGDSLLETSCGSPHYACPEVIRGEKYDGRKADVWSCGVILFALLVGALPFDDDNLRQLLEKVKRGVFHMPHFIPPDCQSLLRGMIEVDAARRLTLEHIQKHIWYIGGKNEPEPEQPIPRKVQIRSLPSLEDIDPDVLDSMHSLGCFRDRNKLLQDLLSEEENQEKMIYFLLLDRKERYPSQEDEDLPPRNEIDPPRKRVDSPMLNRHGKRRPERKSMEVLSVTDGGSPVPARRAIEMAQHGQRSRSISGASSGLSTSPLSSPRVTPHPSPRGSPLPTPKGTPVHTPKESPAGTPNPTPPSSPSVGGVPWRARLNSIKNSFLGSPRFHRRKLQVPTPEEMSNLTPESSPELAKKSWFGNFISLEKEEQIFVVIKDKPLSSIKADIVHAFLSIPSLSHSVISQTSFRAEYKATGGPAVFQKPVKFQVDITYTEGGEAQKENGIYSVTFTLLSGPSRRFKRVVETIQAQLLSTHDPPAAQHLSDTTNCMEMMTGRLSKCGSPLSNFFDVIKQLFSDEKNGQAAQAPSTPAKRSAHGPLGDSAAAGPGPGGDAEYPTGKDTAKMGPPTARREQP
Chain of MKNK2 (human) (Q9HBH9 whole entry, looked up): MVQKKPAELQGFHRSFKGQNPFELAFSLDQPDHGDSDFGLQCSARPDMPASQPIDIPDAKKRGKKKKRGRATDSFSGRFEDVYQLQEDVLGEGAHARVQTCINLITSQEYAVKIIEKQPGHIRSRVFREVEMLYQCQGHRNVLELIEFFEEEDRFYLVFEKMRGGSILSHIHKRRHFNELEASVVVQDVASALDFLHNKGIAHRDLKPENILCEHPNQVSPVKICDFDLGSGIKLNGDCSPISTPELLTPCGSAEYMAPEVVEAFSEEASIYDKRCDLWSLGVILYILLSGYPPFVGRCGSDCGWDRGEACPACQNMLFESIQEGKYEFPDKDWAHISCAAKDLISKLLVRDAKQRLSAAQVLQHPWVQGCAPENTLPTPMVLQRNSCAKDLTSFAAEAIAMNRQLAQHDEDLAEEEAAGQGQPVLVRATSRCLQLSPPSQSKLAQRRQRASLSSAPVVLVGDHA
Chain of PIP5K1A (human) (Q99755 whole entry, looked up): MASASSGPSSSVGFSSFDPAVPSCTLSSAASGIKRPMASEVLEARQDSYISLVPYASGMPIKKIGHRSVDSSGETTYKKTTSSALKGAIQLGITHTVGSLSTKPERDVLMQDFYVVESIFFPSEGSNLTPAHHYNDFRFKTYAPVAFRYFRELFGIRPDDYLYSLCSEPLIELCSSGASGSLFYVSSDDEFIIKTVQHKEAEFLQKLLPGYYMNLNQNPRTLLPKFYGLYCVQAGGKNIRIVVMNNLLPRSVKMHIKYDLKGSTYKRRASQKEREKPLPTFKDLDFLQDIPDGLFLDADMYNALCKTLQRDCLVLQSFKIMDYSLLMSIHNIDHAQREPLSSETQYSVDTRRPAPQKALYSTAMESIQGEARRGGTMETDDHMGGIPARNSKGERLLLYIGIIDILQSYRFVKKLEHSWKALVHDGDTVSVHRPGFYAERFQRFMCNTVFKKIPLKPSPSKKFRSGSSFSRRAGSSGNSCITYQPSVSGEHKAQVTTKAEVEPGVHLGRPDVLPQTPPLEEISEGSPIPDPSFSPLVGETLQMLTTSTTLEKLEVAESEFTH

SMILES	kinase still bound, per cent of control (MAP4K2 (human)) [%]	kinase still bound, per cent of control (RIOK1 (human)) [%]	kinase still bound, per cent of control (PIP5K1A (human)) [%]	kinase still bound, per cent of control (AAK1 (human)) [%]	kinase still bound, per cent of control (PIP4K2B (human)) [%]	kinase still bound, per cent of control (ACVR2B (human)) [%]	kinase still bound, per cent of control (CSNK2A1 (human)) [%]	kinase still bound, per cent of control (PLK4 (human)) [%]	kinase still bound, per cent of control (CSNK2A2 (human)) [%]	kinase still bound, per cent of control (STK17A (human)) [%]	kinase still bound, per cent of control (MYLK (human)) [%]	kinase still bound, per cent of control (BMP2K (human)) [%]	kinase still bound, per cent of control (PIM3 (human)) [%]	kinase still bound, per cent of control (STK17B (human)) [%]	kinase still bound, per cent of control (PIM1 (human)) [%]	kinase still bound, per cent of control (BRSK2 (human)) [%]	kinase still bound, per cent of control (RPS6KA2 KD2 (human)) [%]	kinase still bound, per cent of control (MYLK3 (human)) [%]	kinase still bound, per cent of control (DCLK3 (human)) [%]	kinase still bound, per cent of control (MAPK15 (human)) [%]	other results
CN1C(=O)[C@H]2CCC[C@H]2N(C2CCCC2)c2nc(Nc3ccc(C(N)=O)cc3)ncc21	13	26	29		9.6		25	1.6		0.05	23	12	6.4	0.2	6.8		20	5.5	1.4	18	kinase still bound, per cent of control (CIT (human)): 28%; kinase still bound, per cent of control (MKNK2 (human)): 16%; kinase still bound, per cent of control (AURKC (human)): 2.2%; kinase still bound, per cent of control [1]: 5.2%; kinase still bound, per cent of control (MAP3K7 (human)): 3.4%; kinase still bound, per cent of control (NEK2 (human)): 13%; kinase still bound, per cent of control (AURKB (human)): 8.6%; kinase still bound, per cent of control (CDK7 (human)): 3.7%; kinase still bound, per cent of control (MINK1 (human)): 1.8%; kinase still bound, per cent of control (PIK3CG (human)): 11%; kinase still bound, per cent of control (CSNK1G1 (human)): 23%; kinase still bound, per cent of control (CDK16 (human)): 18%; kinase still bound, per cent of control (TAOK3 (human)): 10%
CS(=O)(=O)Nc1ccc(-c2ncc(/C=C3\SC(=N)NC3=O)s2)cc1	29	27		13		16		11		2	19	29	2	24	2.8	28		2.6	22		kinase still bound, per cent of control (MKNK2 (human)): 13%; kinase still bound, per cent of control (ACVR2A (human)): 18%; kinase still bound, per cent of control [2]: 4.4%; kinase still bound, per cent of control (MINK1 (human)): 1.3%; kinase still bound, per cent of control (CSNK1G1 (human)): 22%
CSC1=NC(=O)/C(=C/c2c[nH]c(=O)c(-c3ccc(NS(C)(=O)=O)cc3)c2)S1	7.7	7.1	29	6.2	18		1.6	14	6.2	5	34	2	16	5	13		16			5	kinase still bound, per cent of control (MAP3K7 (human)): 14%; kinase still bound, per cent of control (NEK2 (human)): 27%; kinase still bound, per cent of control (CDK7 (human)): 30%; kinase still bound, per cent of control (PIK3CG (human)): 13%; kinase still bound, per cent of control (RPS6KA5 KD2 (human)): 11%; kinase still bound, per cent of control [3]: 16%

More lines, main results first:

kinase still bound, per cent of control (MAP4K2 (human)) [%]	kinase still bound, per cent of control (RIOK1 (human)) [%]	kinase still bound, per cent of control (PIP5K1A (human)) [%]	kinase still bound, per cent of control (AAK1 (human)) [%]	kinase still bound, per cent of control (PIP4K2B (human)) [%]	kinase still bound, per cent of control (ACVR2B (human)) [%]	kinase still bound, per cent of control (CSNK2A1 (human)) [%]	kinase still bound, per cent of control (PLK4 (human)) [%]	kinase still bound, per cent of control (CSNK2A2 (human)) [%]	kinase still bound, per cent of control (STK17A (human)) [%]	kinase still bound, per cent of control (MYLK (human)) [%]	kinase still bound, per cent of control (BMP2K (human)) [%]	kinase still bound, per cent of control (PIM3 (human)) [%]	kinase still bound, per cent of control (STK17B (human)) [%]	kinase still bound, per cent of control (PIM1 (human)) [%]	kinase still bound, per cent of control (BRSK2 (human)) [%]	kinase still bound, per cent of control (RPS6KA2 KD2 (human)) [%]	kinase still bound, per cent of control (MYLK3 (human)) [%]	kinase still bound, per cent of control (DCLK3 (human)) [%]	SMILES	kinase still bound, per cent of control (MAPK15 (human)) [%]	other results
6.9	1.4	3.3	1.1	2.6	7.6	6.4	0.95	5.1	0.05	19	0	1.6	0.2	0.7	7.1	13	0.55	30	N=C1NC(=O)/C(=C/c2ccc(-c3cncc4ccccc34)o2)S1	10	kinase still bound, per cent of control (CIT (human)): 19%; kinase still bound, per cent of control (AURKC (human)): 0.3%; kinase still bound, per cent of control (GSK3A (human)): 14%; kinase still bound, per cent of control [1]: 0.95%; kinase still bound, per cent of control (ACVR2A (human)): 8.6%; kinase still bound, per cent of control [2]: 3.8%; Kd (AURKB (human)): 210 nM; kinase still bound, per cent of control (AURKB (human)): 0.8%; kinase still bound, per cent of control (CDK7 (human)): 14%; kinase still bound, per cent of control (PHKG2 (human)): 10%; kinase still bound, per cent of control [3]: 0.7%; kinase still bound, per cent of control (CSNK1D (human)): 3.4%; kinase still bound, per cent of control (CDK16 (human)): 9.8%; kinase still bound, per cent of control (TAOK3 (human)): 26%
		30		26	10	12	5.2	11	0.05			5.4	0.4	8.1	18	21	21	26	N=C1NC(=O)/C(=C/c2ccc(-c3csc4ccccc34)o2)S1	7.6	kinase still bound, per cent of control (MKNK2 (human)): 34%; kinase still bound, per cent of control (GSK3A (human)): 0%; kinase still bound, per cent of control (ACVR2A (human)): 10%; kinase still bound, per cent of control [3]: 33%; kinase still bound, per cent of control (CSNK1D (human)): 34%
	3.7	17	4.7	5.5	25	3.2	0.85	5.6	0		0.4	2.7	0.25	2.7	29	6.2	8.7		O=C1NC(=S)S/C1=C\c1ccc(-c2cncc3ccccc23)o1	9	kinase still bound, per cent of control (CIT (human)): 28%; kinase still bound, per cent of control (MKNK2 (human)): 23%; kinase still bound, per cent of control (AURKC (human)): 5.2%; kinase still bound, per cent of control [1]: 4%; kinase still bound, per cent of control (MAP3K7 (human)): 28%; kinase still bound, per cent of control [2]: 9.6%; kinase still bound, per cent of control (AURKB (human)): 27%; kinase still bound, per cent of control (PHKG2 (human)): 8.1%; kinase still bound, per cent of control (MINK1 (human)): 33%; kinase still bound, per cent of control (PIK3CG (human)): 16%; kinase still bound, per cent of control (CDK16 (human)): 5.2%
